Laboratory results taken from patent US6403791B1, “Heterocyclic compounds and their therapeutic use” (Darwin Discovery, Ltd., priority 2000, dated 2002).

Test: Oral pharmacokinetics (Cmax) in guinea pigs
Conditions: guinea pig, in vivo, dosed orally at 3 mg/kg to guinea pigs

CCc1nc2c(OC(F)F)ccc(C(=O)Nc3c(C)noc3C)c2o1 [Example 1, 4-Difluoromethoxy-2-ethylbenzooxazole-7-carboxylic acid (3,5-dimethylisoxazole-4-yl)-amide] showed a Cmax of 4370 ng/mL.
